Values quoted from earlier work, collected in patent publication US20250312497A1, “METHOD OF TREATING PROSTATE CANCER” (Novartis AG, priority 2022, published 2025).

What was measured:
[1] = test system: docetaxel progressing metastatic castration-resistant prostate cancer; conditions: randomized, 200 patients; P<0.0001; cited from earlier work
mCRPC = conditions: control arm; prior docetaxel and abiraterone acetate and/or enzalutamide; cited from earlier work

SMILES	proportion of patients with PSA decline >=50% [1] [%]	median overall survival (mCRPC) [months]
CO[C@H]1C(=O)[C@]2(C)[C@@H](OC)C[C@H]3OC[C@@]3(OC(C)=O)[C@H]2[C@H](OC(=O)c2ccccc2)[C@]2(O)C[C@H](OC(=O)[C@H](O)[C@@H](NC(=O)OC(C)(C)C)c3ccccc3)C(C)=C1C2(C)C [cabazitaxel]	37	–
C[C@]12C=CC(=O)C=C1CC[C@@H]1[C@@H]2C(=O)C[C@@]2(C)[C@H]1CC[C@]2(O)C(=O)CO [prednisone]	–	9.8
